Experimental data reported in patent publication US12251424B2, “Methods of protecting vascular integrity induced by targeted radiation therapy” (Janssen Pharmaceutica NV, priority 2017, dated 2025).

Tests used:
erectile function = assay: Intracavernous pressure (ICP) measurements, radiation-induced erectile dysfunction; type: in vivo, Sprague Dawley rats
Experimental: (§1) Thirty-five eight-week-old male Sprague Dawley rats were obtained from Charles River Laboratories (Malvern, Pa.) and pair-housed under standard housing conditions. Animals were divided into 4 groups: Saline/Sham, Saline RT, TPOm/Sham, TPOm/RT.
(§2) TPOm was administered as a single dose via sub-cutaneous injection (3,000 μg/kg) 10 minutes after RT.
(§3) Stereotactic image-guided prostate single fraction RT was performed as published previously (Kimura et al., J. Sex Med. 9(6):1535-49 (2012)). In brief, rats were anesthetized and immobilized on a polystyrene block. A CT scan was performed to image the entire pelvis using a GE Discovery RT590 (GE Healthcare, Little Chalfont, UK). Individualized treatment plans were prepared for each rat using the Eclipse treatment planning system (Varian Medical Systems, Palo Alto, CA). The prostate and rectum were contoured, with the primary treatment volume generated by expansion of the prostate by 1 mm followed by subtraction of the rectum expanded by 1 mm. A single, dynamic conformal arc plan using a beam energy of 6 MV was normalized to deliver 20 Gy to 95% of the primary treatment volume in a single fraction with partial sparing of the rectum. The majority of the bladder, the penis and the testes were excluded from the field. The rat was then treated on a NovalisTx radiosurgery linac (Brainlab AG, Munich, DE and Varian Medical Systems) using cone beam computed tomography prior to treatment with bony image guidance within the same anesthesia window as planning. Sham irradiated rats were anesthetized and immobilized on a polystyrene block without irradiation.
For intracavernous pressure (ICP) measurements, a previously published protocol was followed (Kimura et al., J. Sex Med. 8(8):2215-26 (2011)). […] MAP and ICP were recorded using LabChart 7 software (ADInstruments, Colorado Spring, CO), and expressed as a ratio to minimize inter-rat differences in baseline pressure and effects of anesthesia.
(§4) Statistical analysis was completed using Prism 6 (GraphPad, LaJolla, CA). […] Rat weight was assessed using a two-way repeated measures ANOVA.

internal pudendal artery = assay: Ultrasonographic measurement of hydralazine-induced vasodilation after prostate RT; type: in vivo, Sprague Dawley rats
Experimental: as §1, §2, §3
Following ICP measurements, acoustic gel was applied to the prostate area and a mouse high frequency echo transducer (MS5505) was applied to the internal pudendal artery. […] Reproducible US placement was verified by using the same US-measured distance to the pubic bone in all animals. […] Arterial diameter was measured using the vascular package for Vevo 2100 software.
as §4

[1] = Rat weight gain after 20 Gy targeted prostate RT; type: in vivo, Sprague Dawley rats
Experimental: as §1, §2
as §3, with “The majority of the bladder, the penis and the testes were excluded from the field. The rat was then treated on a NovalisTx radiosurgery linac (Brainlab AG, Munich, DE and Varian Medical Systems) using cone beam computed tomography prior to treatment with bony image guidance within the same anesthesia window as planning. Sham irradiated rats were anesthetized and immobilized on a polystyrene block without irradiation.” left out
as §4

[2] = 3,000 μg/kg; administered at multiple time points; whole body radiation; cited from earlier work
penile artery = assay: CD31 staining and quantification of penile arteries after prostate RT; type: in vivo, Sprague Dawley rats
Experimental: as §1, §2
Stereotactic image-guided prostate single fraction RT was performed as published previously (Kimura et al., J. Sex Med. 9(6):1535-49 (2012)). In brief, rats were anesthetized and immobilized on a polystyrene block. A CT scan was performed to image the entire pelvis using a GE Discovery RT590 (GE Healthcare, Little Chalfont, UK). Individualized treatment plans were prepared for each rat using the Eclipse treatment planning system (Varian Medical Systems, Palo Alto, CA). […]
Penises were snap-frozen in liquid nitrogen and stored at −80° C. until use. […] CD31 expression was then quantified by highlighting only the CD31 stained portion surrounding each vessel, and obtaining a pixel count of the stained region, using a uniform threshold across all images. […]
as §4

[3] = mouse, in vivo
Experimental: Male and female mice of at least 8 weeks of age were transferred to a non-barrier facility and group housed throughout the experiments.
Mice were anesthetized with 80/8 mg/kg ketamine/xylazine i.p. injection. Mice were placed in cylindrical lead jigs that shielded the entire body with the exception of the left ear pinna and were irradiated using an Orthovoltage X-ray 320 irradiator (Precision X-ray Inc.; North Branford, CT) at a dose rate of 203 cGy/minute (320 kVp/10 mA with a 2 mm Al filter).
TPOm was reconstituted in sterile saline, sterile filtered, aliquoted, and stored at −20° C. until use. Immediately prior to injection, aliquots were thawed and diluted. Mice received 300 μg/kg of TPOm, sub-cutaneously, six hours after radiation.
Mice were euthanized with 50 μL Euthasol (Virbac, Fort Worth, TX) injected intraperitoneally. After mice became non-responsive to toe pinch, but prior to heartbeat cessation, 500 μL of blood was collected by cardiac puncture via heparinized syringe, and immediately vortexed with 20 μL heparin. CBC analysis was conducted using an IDEXX ProCyte Dx Hematology analyzer by the Duke University Veterinary Diagnostic Laboratory.

ear vasculature [4] = assay: Murine ear vein model: vascular permeability (FITC-dextran, intravital microscopy, Patlak analysis); type: in vivo, Flk1-mCherry mice; details: TPOm following radiation; days 3 and 7 post-irradiation
Text: (§5) Immediately prior to injection, aliquots were thawed and diluted.
(§6) Mice were anesthetized via isoflurane (2%, mixed with oxygen) and the ear was chemically depilated (Nair™) and cleaned with 70% ethanol. The mouse was placed on a heated stage underneath a Zeiss Observer.Z1 (Carl Zeiss AG, Oberkochen, Germany) inverted microscope. The irradiated ear was affixed to a plexi-glass slide using double-sided tape. Images were acquired using Zen Imaging software (Carl Zeiss AG, Oberkochen, Germany). The vascular endothelial cells in Flk1-mCherry mice express mCherry, which was visualized using a Zeiss Texas Red filter (Ex. 560/40; Em. 630/75). Acridine orange and FITC-dextran were visualized using a Zeiss eGFP/FITC/Alexa488 filter (Ex. 470/40; Em. 525/50).
After orienting the mouse on the microscope, a 30G needle attached to a syringe with Tygon Microbore tubing catheter (Harvard Apparatus) was inserted into the tail vain. Z-stack images of both the FITC and mCherry channels were acquired every 10 seconds, and 0.5 mg of FITC-conjugated 70 kDa dextran injected through the catheter after the third set image of images was collected. […]
Model (0.1) postulates that the change in tissue concentration at time t is proportional to CB(t-Δ), concentration of dextran in the vasculature at a delay Δ. […] In this setting, the quantity of interest is k1, the permeability rate. […]

ear vasculature [5] = assay: Murine ear vein model: leukocyte-endothelial cell (L/E) interactions (acridine orange intravital microscopy); type: in vivo, Flk1-mCherry mice
Text: as §5, §6
After orienting the mouse on the microscope, 0.5 mg of acridine orange (Sigma, St. Louis, MO; dissolved in sterile saline) was injected intravenously. […] Four venules per mouse were identified, based on their diameter, and the number of leukocytes that rolled past three pre-selected points in each venule were counted. The vessel diameter (D) and free-flowing leukocyte velocities (V) were also measured, and used to calculate shear rate, defined as (8×V)/D. All videos were analyzed by researchers blinded to the treatment groups. […]
B), and slopes were calculated for each individual mouse using GraphPad Prism. […]

methoxypolyethyleneglycol20000-propionyl-L-Isoleucyl-L-Glutamyl-Glycyl-L-Prolyl-L-Threonyl-L-Leucyl-L-Arginyl-L-Glutaminyl-L-2-Naphthylalanyl-L-Leucyl-L-Alanyl-L-Alanyl-L-Arginyl-Sarcosyl-Ne-(methoxypolyethyleneglycol20000-propionyl-L-Isoleucyl-L-Glutamyl-Glycyl-L-Prolyl-L-Threonyl-L-Leucyl-L-Arginyl-L-Glutaminyl-L-2-Naphthylalanyl-L-Leucyl-L-Alanyl-L-Alanyl-L-Arginyl-Sarcosyl-)-Lysinamide [TPOm]
mean ICP:MAP versus unirradiated rats treated with saline (erectile function; TPOm alone, no RT): not significantly different
ED penetrance (ICP:MAP ratio not greater than 0.6) (erectile function; TPOm following 20 Gy prostate RT, 9 weeks): 67%
prevention of prostate RT (20 Gy) induced erectile dysfunction (erectile function; single dose of TPOm 10 minutes post RT, ICP tested 9 weeks after RT (FIG. 4)): not prevented
change in pudendal artery diameter in response to hydralazine (internal pudendal artery; TPOm following 20 Gy prostate RT, 0.4 mg/kg hydralazine, 9 weeks post-RT): 24.1%±7.2%
protection from impaired pudendal artery vasodilation following prostate RT (internal pudendal artery; nine weeks post-RT, diameter before and after hydralazine (FIG. 2)): protected rats from impaired pudendal artery vasodilation
increase in pudendal artery diameter following hydralazine infusion (internal pudendal artery; non-irradiated rats, TPOm alone, 0.4 mg/kg hydralazine, 9 weeks): 10.4%±10%
mean rate of body weight gain ([1]; TPOm/RT, 20 Gy prostate RT, 3,000 μg/kg s.c. 10 minutes after RT): 28.6±3.9 g/week
mean rate of body weight gain ([1]; TPOm/sham (no RT), 3,000 μg/kg s.c. single dose): 37.7±3.3 g/week
survival compared to placebo [2]: substantial survival benefit
RT-induced decrease in penile artery cross-sectional area (penile artery; TPOm/RT rats, nine weeks post-RT (FIG. 3B)): not seen
CD31 density (CD31+ pixels/μm artery perimeter) (penile artery; pair-wise comparison between treatment groups (FIG. 3C)): no pair-wise differences
effect on total leukocytes, neutrophils or lymphocytes [3]: no significant differences
permeability rates versus non-irradiated controls (ear vasculature [4]): not significantly different from non-irradiated controls
average slope of shear rate vs. L/E interactions (ear vasculature [5]; 6 Gy to the ear, 300 μg/kg TPOm s.c. six hours later, 24 hours post-irradiation): −8.7±6.4
L/E interaction at higher shear rates after RT (ear vasculature [5]; FIG. 9C): prevented L/E interaction at higher shear rates
